Source: US12194048B2, “Use of pyrrolopyridine derivatives for preventing or treating inflammatory diseases” (VORONOI CO., LTD., priority 2020, dated 2025)

Key:
[1] = molecular target: T1, ALK (Homo sapiens, UniProt Q9UM73); assay: scanMAX Kinase analysis panel (DiscoverX); type: binding; details: drug 1 μM in DMSO; from % control
T1 construct: purchased DiscoverX scanMAX Kinase analysis panel
Excerpt: (§1) [(Example compound−positive control)/(negative control−positive control)×100]

[2] = molecular target: T2, CAMKK2 (Homo sapiens, UniProt Q96RR4); assay: scanMAX Kinase analysis panel (DiscoverX); type: binding; details: drug 1 μM in DMSO; from % control
T2 construct: purchased DiscoverX scanMAX Kinase analysis panel
Excerpt: as §1

[3] = molecular target: T3, CHEK2 (Homo sapiens, UniProt O96017); assay: scanMAX Kinase analysis panel (DiscoverX); type: binding; details: drug 1 μM in DMSO; from % control
T3 construct: purchased DiscoverX scanMAX Kinase analysis panel
Excerpt: as §1

[4] = molecular target: T4, CSNK1D (Homo sapiens, UniProt P48730); assay: scanMAX Kinase analysis panel (DiscoverX); type: binding
T4 construct: purchased DiscoverX scanMAX Kinase analysis panel
Excerpt: as §1

[5] = molecular target: T5, ERK5 (Homo sapiens, UniProt Q13164); assay: scanMAX Kinase analysis panel (DiscoverX); type: binding; details: drug 1 μM in DMSO; from % control
T5 construct: purchased DiscoverX
Excerpt: as §1

[6] = molecular target: T6, JAK1(JH2domain-pseudokinase) (Homo sapiens, UniProt P23458); assay: scanMAX Kinase analysis panel (DiscoverX); type: binding; details: drug 1 μM in DMSO; from % control
T6 construct: JAK1 (JH2domain-pseudokinase); purchased DiscoverX
Excerpt: as §1

[7] = molecular target: T7, JNK2 (Homo sapiens, UniProt P45984); assay: scanMAX Kinase analysis panel (DiscoverX); type: binding; details: drug 1 μM in DMSO; from % control
T7 construct: purchased DiscoverX
Excerpt: as §1

[8] = molecular target: T8, LTK (Homo sapiens, UniProt P29376); assay: scanMAX Kinase analysis panel (DiscoverX); type: binding; details: drug 1 μM in DMSO; from % control
T8 construct: purchased DiscoverX scanMAX Kinase analysis panel
Excerpt: as §1

[9] = molecular target: T9, MYLK (Homo sapiens, UniProt Q15746); assay: scanMAX Kinase analysis panel (DiscoverX); type: binding; details: drug 1 μM in DMSO; from % control
T9 construct: purchased DiscoverX scanMAX Kinase analysis panel
Excerpt: as §1

[10] = molecular target: T10, PAK2 (Homo sapiens, UniProt Q13177); assay: scanMAX Kinase analysis panel (DiscoverX); type: binding; details: drug 1 μM in DMSO; from % control
T10 construct: purchased DiscoverX scanMAX Kinase analysis panel
Excerpt: as §1

[11] = molecular target: T11, PLK4 (Homo sapiens, UniProt O00444); assay: scanMAX Kinase analysis panel (DiscoverX); type: binding; details: drug 1 μM in DMSO; from % control
T11 construct: purchased DiscoverX
Excerpt: as §1

[12] = molecular target: T12, STK33 (Homo sapiens, UniProt Q9BYT3); assay: scanMAX Kinase analysis panel (DiscoverX); type: binding; details: drug 1 μM in DMSO; from % control
T12 construct: purchased DiscoverX scanMAX Kinase analysis panel
Excerpt: as §1

[13] = molecular target: T13, STK39 (Homo sapiens, UniProt Q9UEW8); assay: scanMAX Kinase analysis panel (DiscoverX); type: binding; details: drug 1 μM in DMSO; from % control
T13 construct: purchased DiscoverX
Excerpt: as §1

[14] = tested on: naive T cells in the mouse spleen; assay: Regulatory T cell and Th17 cell differentiation; type: cell-based; details: FIG. 2
Method: The experiment was conducted using Harmine as a control.

[15] = tested on: peripheral blood mononuclear cells of inflammatory bowel disease patients; assay: Inflammatory cytokine expression in PBMC of inflammatory bowel disease patients; type: cell-based, human; details: treated 24 hours; FIG. 4
[16] = tested on: 2,4,6-trinitrobenzenesulfonic acid (TNBS) induced colitis mouse model; assay: TNBS induced colitis mouse model; type: in vivo, male BALB/c mice; details: 60 mpk orally once daily
Method: In the present experiment, male BALB/c mice (8 weeks old) were used. The experimental animals were subjected to dietary restriction for one day prior to treating with TNBS. Bowel inflammation was induced by administering TNBS (TNBS solution, 1 mg in 0.1 mL 50% ethanol) by submucosal injection in the colon. For the control animals in which inflammation was not induced, only 0.9% NaCl solution without TNBS was administered by submucosal injection in the colon.
The comparative compound, cyclosporine A, was orally administered once daily, and the TNF-α blocker (Enbrel®) was administered intraperitoneally once daily.
During the test, changes in body weight, occult bleeding in stool, and stool consistently were examined every day, and serum was collected on day 5 of the experiment. Bowel tissue was collected at the termination of the experiment to measure the weight of the bowel tissue, degree of polymorphonuclear leukocyte (PMN) deposition and degree of myeloperoxidase (MPO) expression.

[17] = tested on: DSS-induced inflammatory bowel disease mouse model; assay: DSS-induced inflammatory bowel disease mouse model; type: in vivo, male C57BL/6 mice; details: 20 mg/kg orally twice a day
Method: The animals used for the present experiment was male C57BL/6 mice (aged 6 to 8 weeks) weighting 20 to 24 g, purchased from Charles River Laboratories. All the mice except the normal control were made to drink 3% DSS water for 5 days to induce enteritis.
The comparative compound cyclosporine A was dissolved in 0.5% methylcellulose solvent and orally administered once a day at a prescribed concentration (20 mg/kg), and Tofacitinib was dissolved in 0.5% methylcellulose solvent and orally administered twice a day at a prescribed concentration (10 mg/kg).
Changes in body weight, occult bleeding in stool, and stool consistently were examined daily during the experiment to assess the degree of disease activity, and upon termination of the experiment (day 12), bowel tissue was collected in order to measure bowel tissue weight and length, perform histological analysis using H&E dyeing and PAS dyeing, and analyze expression of inflammatory cytokines in the bowel tissue.
To assess disease activity, changes in weight and other criteria disclosed in Table 4 below were used for scoring; scores were aggregated.

[18] = Metabolic stability (MS) evaluation; type: in vitro ADME
[19] = Metabolic stability (MS) evaluation; type: in vitro ADME; remark: listed apart in the source
[20] = molecular target: hERG (Homo sapiens, UniProt Q12809); assay: hERG analysis
[21] = Plasma stability evaluation; type: in vitro ADME; details: LC-MS/MS
Method: Hydrolysis in plasma is a factor which, together with metabolic reactions, impacts fast in-vivo decomposition of a drug and short half-life thereof; plasma stability is a test which assesses these. The compound at a certain concentration was added to plasma and reacted for a certain period, then collected, and LC-MS/MS was used to measure the percentage of compound remaining relative to the amount prior to the reaction.

[22] = tested on: IMQ-induced psoriasis-like skin inflammation model; assay: Topical treatment in imiquimod (IMQ)-induced psoriasis-like skin inflammation; type: in vivo, BALB/c mice
Method: Dexamethasone (0.15%), the reference compound, was applied topically at 20 μL/mouse on the right ear once daily (QD) during the same study period.
Fifteen (15) mg imiquimod (IMQ) cream (5%) (Aldara; 3M Pharmaceuticals) was topically administered once daily (QD) on the right ear one hour after treatment from Day 1 to Day 9 for 9 consecutive days, translating to a daily dose of 0.75 mg of the active compound.
Ear swelling was measured on Day 0 and thereafter 30 min before dosing on Days 2, 4, 6 and 8. On Day 10, ear swelling was measured 24 hours after the last dosing.

Sequence of hERG (Q12809 whole entry): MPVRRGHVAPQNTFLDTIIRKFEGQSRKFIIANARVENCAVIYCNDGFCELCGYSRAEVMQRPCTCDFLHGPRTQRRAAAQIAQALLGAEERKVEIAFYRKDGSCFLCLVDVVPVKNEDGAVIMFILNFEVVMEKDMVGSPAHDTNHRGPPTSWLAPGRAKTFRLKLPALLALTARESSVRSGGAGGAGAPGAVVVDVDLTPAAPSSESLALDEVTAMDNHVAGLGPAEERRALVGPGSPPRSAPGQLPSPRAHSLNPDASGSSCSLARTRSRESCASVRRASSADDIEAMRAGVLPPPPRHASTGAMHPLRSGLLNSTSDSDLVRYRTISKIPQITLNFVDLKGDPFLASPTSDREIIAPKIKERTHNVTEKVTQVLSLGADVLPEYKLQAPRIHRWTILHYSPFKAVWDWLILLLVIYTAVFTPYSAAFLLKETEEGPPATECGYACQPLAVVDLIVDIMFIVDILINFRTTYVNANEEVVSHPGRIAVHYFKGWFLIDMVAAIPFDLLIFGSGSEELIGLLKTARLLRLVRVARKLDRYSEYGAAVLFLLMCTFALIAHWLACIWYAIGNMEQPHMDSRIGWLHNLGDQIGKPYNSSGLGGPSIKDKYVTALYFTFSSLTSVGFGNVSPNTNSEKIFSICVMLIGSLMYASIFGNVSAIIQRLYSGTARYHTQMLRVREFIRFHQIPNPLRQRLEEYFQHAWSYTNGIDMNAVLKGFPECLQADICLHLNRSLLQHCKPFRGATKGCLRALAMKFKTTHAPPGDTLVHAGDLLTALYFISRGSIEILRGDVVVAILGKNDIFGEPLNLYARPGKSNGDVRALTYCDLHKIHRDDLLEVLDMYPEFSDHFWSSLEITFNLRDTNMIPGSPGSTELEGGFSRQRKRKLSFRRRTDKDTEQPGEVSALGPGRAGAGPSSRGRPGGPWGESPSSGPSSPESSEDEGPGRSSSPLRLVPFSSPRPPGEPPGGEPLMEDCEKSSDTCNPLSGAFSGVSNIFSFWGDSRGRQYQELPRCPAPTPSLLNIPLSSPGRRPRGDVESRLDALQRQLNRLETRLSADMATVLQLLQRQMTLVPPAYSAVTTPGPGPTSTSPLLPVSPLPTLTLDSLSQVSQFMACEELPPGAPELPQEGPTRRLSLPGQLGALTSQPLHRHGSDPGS
T7 sequence (P45984 whole entry): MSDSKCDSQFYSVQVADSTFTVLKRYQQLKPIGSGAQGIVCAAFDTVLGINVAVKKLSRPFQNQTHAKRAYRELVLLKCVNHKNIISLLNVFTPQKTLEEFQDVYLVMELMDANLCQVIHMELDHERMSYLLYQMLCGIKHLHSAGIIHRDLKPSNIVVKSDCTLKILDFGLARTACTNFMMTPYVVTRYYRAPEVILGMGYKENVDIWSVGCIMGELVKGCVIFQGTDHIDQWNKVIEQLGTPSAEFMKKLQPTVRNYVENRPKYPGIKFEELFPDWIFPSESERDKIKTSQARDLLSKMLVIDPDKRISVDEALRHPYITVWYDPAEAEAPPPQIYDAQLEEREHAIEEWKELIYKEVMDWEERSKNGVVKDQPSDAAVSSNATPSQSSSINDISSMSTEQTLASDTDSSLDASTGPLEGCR
T4 sequence (P48730 whole entry): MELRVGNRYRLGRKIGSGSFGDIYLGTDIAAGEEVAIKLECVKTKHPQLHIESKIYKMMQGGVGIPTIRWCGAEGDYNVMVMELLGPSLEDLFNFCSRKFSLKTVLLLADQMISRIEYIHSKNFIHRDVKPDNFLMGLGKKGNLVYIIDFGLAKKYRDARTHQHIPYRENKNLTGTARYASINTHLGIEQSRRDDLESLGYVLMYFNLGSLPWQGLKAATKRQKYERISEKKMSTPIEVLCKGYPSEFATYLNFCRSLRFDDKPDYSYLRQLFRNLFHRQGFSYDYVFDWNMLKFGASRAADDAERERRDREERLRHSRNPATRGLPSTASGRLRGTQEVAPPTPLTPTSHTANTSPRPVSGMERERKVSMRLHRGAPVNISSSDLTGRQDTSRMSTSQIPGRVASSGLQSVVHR
T2 sequence (Q96RR4 whole entry): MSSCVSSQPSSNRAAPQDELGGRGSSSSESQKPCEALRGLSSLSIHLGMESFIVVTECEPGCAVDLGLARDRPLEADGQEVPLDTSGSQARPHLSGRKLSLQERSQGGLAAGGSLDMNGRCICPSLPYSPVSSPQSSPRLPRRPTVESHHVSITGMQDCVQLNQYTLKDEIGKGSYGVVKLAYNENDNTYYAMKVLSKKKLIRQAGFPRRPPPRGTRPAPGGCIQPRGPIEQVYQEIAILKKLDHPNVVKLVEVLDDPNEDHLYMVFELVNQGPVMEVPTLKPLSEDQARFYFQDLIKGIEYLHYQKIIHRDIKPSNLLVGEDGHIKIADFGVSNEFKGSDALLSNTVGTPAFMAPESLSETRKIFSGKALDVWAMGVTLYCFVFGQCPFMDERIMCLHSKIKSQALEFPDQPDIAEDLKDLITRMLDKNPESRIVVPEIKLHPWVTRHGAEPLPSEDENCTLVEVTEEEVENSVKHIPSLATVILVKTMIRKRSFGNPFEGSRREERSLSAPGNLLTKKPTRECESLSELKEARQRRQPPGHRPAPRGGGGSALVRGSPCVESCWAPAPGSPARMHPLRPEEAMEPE
T9 sequence (Q15746 whole entry): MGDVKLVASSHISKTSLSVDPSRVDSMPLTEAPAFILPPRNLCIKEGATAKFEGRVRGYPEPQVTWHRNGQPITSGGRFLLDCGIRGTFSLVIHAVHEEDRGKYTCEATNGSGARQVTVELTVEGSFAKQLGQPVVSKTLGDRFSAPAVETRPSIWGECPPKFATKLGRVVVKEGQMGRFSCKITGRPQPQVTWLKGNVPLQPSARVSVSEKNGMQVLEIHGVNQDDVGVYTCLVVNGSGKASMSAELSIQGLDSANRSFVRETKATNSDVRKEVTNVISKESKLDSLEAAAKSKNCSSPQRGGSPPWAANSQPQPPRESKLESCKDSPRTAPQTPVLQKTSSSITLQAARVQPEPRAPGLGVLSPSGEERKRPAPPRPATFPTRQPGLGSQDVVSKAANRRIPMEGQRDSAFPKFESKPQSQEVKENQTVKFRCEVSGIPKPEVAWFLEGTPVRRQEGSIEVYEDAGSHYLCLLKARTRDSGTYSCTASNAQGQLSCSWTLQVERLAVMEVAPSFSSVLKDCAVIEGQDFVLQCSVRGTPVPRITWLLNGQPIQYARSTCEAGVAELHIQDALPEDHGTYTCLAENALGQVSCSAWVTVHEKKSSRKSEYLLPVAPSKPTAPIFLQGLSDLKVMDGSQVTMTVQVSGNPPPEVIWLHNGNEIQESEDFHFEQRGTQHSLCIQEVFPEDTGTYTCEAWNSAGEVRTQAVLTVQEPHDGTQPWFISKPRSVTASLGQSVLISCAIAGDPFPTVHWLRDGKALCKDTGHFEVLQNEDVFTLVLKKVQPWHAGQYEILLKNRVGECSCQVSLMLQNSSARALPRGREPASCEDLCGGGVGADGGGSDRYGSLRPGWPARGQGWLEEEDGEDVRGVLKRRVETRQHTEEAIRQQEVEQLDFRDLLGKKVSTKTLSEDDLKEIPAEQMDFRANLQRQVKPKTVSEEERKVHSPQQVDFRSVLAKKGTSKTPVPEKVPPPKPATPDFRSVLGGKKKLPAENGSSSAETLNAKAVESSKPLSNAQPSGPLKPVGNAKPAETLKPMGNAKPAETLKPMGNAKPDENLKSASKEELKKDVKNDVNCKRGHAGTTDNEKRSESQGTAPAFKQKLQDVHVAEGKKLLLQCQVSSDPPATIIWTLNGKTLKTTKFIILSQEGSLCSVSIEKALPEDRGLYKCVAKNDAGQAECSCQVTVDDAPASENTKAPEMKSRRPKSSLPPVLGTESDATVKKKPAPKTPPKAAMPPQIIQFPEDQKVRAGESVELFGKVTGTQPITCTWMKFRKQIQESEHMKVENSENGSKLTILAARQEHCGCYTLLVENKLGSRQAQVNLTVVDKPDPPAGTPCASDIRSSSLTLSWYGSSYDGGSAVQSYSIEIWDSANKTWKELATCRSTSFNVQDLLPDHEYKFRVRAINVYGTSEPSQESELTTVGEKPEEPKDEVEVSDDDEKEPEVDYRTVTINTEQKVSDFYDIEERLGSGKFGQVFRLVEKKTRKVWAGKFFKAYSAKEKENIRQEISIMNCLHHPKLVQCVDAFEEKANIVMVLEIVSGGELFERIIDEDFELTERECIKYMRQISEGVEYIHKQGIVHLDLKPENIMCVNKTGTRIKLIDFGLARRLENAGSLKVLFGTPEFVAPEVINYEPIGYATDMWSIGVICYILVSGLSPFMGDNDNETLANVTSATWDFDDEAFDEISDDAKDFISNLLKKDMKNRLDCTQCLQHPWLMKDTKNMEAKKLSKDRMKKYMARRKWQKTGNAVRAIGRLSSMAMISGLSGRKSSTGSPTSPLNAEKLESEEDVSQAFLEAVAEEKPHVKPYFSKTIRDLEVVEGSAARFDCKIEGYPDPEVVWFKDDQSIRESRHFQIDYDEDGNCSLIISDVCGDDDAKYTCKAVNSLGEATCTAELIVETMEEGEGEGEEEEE
T12 sequence (Q9BYT3 whole entry): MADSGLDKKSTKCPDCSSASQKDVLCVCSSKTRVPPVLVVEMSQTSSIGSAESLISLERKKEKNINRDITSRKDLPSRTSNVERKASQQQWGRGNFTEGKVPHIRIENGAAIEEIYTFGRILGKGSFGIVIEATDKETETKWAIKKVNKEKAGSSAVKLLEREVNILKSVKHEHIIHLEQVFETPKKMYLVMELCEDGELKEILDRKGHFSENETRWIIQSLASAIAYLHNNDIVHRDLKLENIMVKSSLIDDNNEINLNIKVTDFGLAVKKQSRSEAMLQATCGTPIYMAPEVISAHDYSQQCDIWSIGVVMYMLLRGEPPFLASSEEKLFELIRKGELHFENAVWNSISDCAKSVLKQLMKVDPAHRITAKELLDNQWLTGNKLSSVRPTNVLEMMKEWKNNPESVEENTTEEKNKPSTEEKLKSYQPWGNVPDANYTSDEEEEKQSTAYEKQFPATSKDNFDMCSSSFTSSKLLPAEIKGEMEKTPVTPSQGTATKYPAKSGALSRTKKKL

inhibition at 1 µM [1]: ≥ 59%
inhibition at 1 µM [2]: 40 to 59%
inhibition at 1 µM [3]: 40 to 59%
inhibition at 1 µM [4]: ≥ 59%
inhibition at 1 µM [5]: 40 to 59%
inhibition at 1 µM [6]: 40 to 59%
inhibition at 1 µM [7]: 40 to 59%
inhibition at 1 µM [8]: ≥ 59%
inhibition at 1 µM [9]: ≥ 59%
inhibition at 1 µM [10]: ≥ 59%
inhibition at 1 µM [11]: 40 to 59%
inhibition at 1 µM [12]: ≥ 59%
inhibition at 1 µM [13]: 40 to 59%
MS (1 μM) (% remaining during 30 min) Human [18]: 39%
MS (1 μM) (% remaining during 30 min) Mouse [19]: 40%
Plasma stability (% remaining, 30 min) ([21]; 30 min): 100%
Plasma stability (% remaining, 120 min) ([21]; 120 min): 97.2%
Structure (SMILES): CCNc1cc(Nc2ccc(C(=O)N3CCC(N4CCOCC4)CC3)cc2OC)nc2[nH]cc(C(F)(F)F)c12 [Compound 1, (4-((4-(ethylamino)-3-(trifluoromethyl)-1H-pyrrolo[2,3-b]pyridine-6-yl)amino)-3-methoxyphenyl)(4-morpholinopiperidine-1-yl)methanone]
differentiation of Th17 cells ([14]; Th17 differentiation conditions): decreased
differentiation of regulatory T cells (Treg) ([14]; regulatory T cell differentiation conditions): increased
expression of IL-6 [15]: effectively inhibiting
expression of IL-17A [15]: effectively inhibiting
expression of TNF-α [15]: effectively inhibiting
weight of bowel tissue ([16]; FIG. 6): weight reduction
thickness of lamina propria ([16]; H&E, FIG. 5): decreased in thickness
MPO levels ([16]; bowel tissue, vs control not treated, FIG. 6): lower
disease activity ([17]; FIG. 7): reduced to the level of the control administered cyclosporine A
expression of IL-6 in bowel tissue ([17]; FIG. 8): decreased
expression of IL-17A in bowel tissue ([17]; FIG. 8): decreased
expression of TNR-α in bowel tissue ([17]; FIG. 8): decreased
loss of goblet cells ([17]; histological analysis, FIG. 8): reduced
body weight reduction ([17]; vs control not treated, FIG. 7): less weight reduction
IC50 [20]: 4.39 µM
cardiac toxicity (hERG, in words) [20]: excellent safety in terms of cardiac toxicity
IMQ-induced ear swelling ([22]; 0.3, 1% and 3% topical 20 μL/mouse QD x 9 days, Day 6 to Day 10, dose-dependent, vs no treatment and vehicle): moderate to significant (p<0.05) inhibition
severity of skin lesions (histopathological examination of the ear skin) ([22]; 3% topical, vs no treatment group and vehicle group): attenuated significantly
protective effects in IMQ-induced psoriasis-like inflammation (ear swelling, ear weight, histopathological result) ([22]; 3%, high dose, 20 μL/mouse QD×9 days topically): significant (p<0.05) protective effects
